From publication PMC7138916 (Pharmacology Research & Perspectives, 2020)

Legend:
[1] = cited from earlier work
[2] = Rat pharmacokinetic study, IV single bolus; settings: male, Sprague-Dawley, in vivo, iv
[3] = Rat brain and blood microdialysis at steady state; settings: rat; for concentration at 6 h: male, Sprague-Dawley, in vivo, iv, C m,brain, steady‐state unbound concentration in brain (right striatum), microdialysis, IV infusion, mean ± SD; for C csf higher than C m,brain by: steady state
[4] = system: efflux transporters (eg, P‐gp, BCRP, MRPs); test: Classification as efflux transporter substrate; settings: for Efflux transporter substrate: Yes/No; for Class (based on membrane permeability and ER value): parental MDCK, MDR1‐MDCK, and Caco‐2 cell lines
Caco‐2 cell line = test: Bidirectional permeability and efflux ratio in Caco‐2 cells; format: in vitro ADME, human; settings: for Efflux ratio: Caco‐2 cell line, P app(B–A)/P app(A–B)
[5] = as above; format: in vitro ADME, human; settings: human; for Papp A→B at 2 h, 5 μmol/L / Papp B→A at 2 h, 5 μmol/L: Caco-2
human P‐gp (MDR1‐MDCK) = human P‐gp (MDR1‐MDCK) (Homo sapiens, UniProt P08183); test: Bidirectional permeability and efflux ratio in MDR1‐MDCK cells; format: in vitro ADME; settings: MDR1‐MDCK cell line, P app(B–A)/P app(A–B)
human P-gp (MDR1) = human P-gp (MDR1) (Homo sapiens, UniProt P08183); test: as above; format: in vitro ADME; settings: human; for Papp A→B at 2 h, 1 μmol/L / Papp B→A at 2 h, 1 μmol/L: MDCK-MDR1; for efflux ratio at 2 h, 1 μmol/L: MDCK-MDR1, Efflux ratio, MDR1‐MDCK cell line, P app(B–A)/P app(A–B)
[6] = Bidirectional permeability in parental MDCK cells; format: in vitro ADME, Canine; settings: dog, MDCK
P‐gp = settings: cited from earlier work
MDCK‐MDR1‐NKI cell lines = settings: cited from earlier work
[7] = Rat microdialysis at additional two brain positions; format: in vivo; settings: steady state, n = 3, mean ± SD

Chain of human P‐gp (MDR1‐MDCK) (P08183 whole entry): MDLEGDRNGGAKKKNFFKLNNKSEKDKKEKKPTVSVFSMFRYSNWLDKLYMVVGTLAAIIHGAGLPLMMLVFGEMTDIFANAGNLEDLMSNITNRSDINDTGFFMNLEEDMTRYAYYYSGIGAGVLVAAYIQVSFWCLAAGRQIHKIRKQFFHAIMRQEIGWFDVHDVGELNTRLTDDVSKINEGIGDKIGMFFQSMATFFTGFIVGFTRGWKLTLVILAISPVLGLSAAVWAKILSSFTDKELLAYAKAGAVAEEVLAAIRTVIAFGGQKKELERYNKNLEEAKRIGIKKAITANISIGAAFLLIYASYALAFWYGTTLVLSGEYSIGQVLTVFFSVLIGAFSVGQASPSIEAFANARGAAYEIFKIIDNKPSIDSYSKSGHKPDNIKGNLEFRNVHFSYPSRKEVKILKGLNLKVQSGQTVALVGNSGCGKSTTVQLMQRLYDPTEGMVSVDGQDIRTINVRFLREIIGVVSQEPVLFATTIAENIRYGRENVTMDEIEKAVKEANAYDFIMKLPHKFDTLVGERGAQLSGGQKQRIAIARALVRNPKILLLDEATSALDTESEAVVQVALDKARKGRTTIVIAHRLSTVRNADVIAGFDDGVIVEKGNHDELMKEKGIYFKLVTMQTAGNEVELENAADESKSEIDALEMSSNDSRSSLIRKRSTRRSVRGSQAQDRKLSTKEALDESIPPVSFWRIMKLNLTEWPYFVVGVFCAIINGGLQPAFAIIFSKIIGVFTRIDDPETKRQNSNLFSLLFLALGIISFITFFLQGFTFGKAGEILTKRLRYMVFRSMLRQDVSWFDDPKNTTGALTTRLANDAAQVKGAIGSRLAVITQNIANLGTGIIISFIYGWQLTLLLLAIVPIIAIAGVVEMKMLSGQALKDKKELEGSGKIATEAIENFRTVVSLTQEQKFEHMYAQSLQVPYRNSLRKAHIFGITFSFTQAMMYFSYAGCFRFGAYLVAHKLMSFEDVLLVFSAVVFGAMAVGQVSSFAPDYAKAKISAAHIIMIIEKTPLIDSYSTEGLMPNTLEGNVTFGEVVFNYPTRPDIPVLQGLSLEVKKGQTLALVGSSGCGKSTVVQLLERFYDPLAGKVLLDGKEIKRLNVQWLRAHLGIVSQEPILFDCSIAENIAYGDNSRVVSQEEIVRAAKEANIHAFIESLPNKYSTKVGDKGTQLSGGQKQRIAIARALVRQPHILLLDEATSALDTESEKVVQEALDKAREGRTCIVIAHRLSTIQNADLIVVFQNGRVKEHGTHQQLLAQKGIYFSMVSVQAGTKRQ
Chain of human P-gp (MDR1) (P08183 whole entry): as above

For Nc1nnc(-c2cccc(Cl)c2Cl)c(N)n1 [Lamotrigine, lamotrigine], the “reported mean values of rat plasma CL” value [1] is given as 0.83 mL/min/kg, the Vd [2] is given as 1.86 ± 0.18 L/kg and the clearance [2] is given as 1.48 ± 0.21 mL/min/kg. The half-life [2] was 15.6 ± 3 h, the concentration at 6 h [3] was 757 ± 42 nM and the “C csf higher than C m,brain by” value [3] was 45%.
In the case of CN/C(=N/CCSCc1nc[nH]c1C)NC#N [Cimetidine], the Efflux transporter substrate [4] is reported as “Yes”, the “Class (based on membrane permeability and ER value)” value (“Class” for short) [4] is reported as “Class II” and the Efflux ratio (Caco‐2 cell line) is reported as 9.20. The Efflux ratio (Caco‐2 cell line; listed as cimetidine) was “greater than 2.0”, the “ER after treatment with novobiocin” value (Caco‐2 cell line; Caco‐2 cells treated with novobiocin (BCRP inhibitor), supplemental data) was 3.29 and the Papp A→B at 2 h, 5 μmol/L [5] was 0.706 ± 0.204 ×10⁻⁶ cm/s. It also gave a Papp B→A at 2 h, 5 μmol/L [5] of 6.49 ± 1.37 ×10⁻⁶ cm/s, a Vd [2] of 3.3 ± 1.93 L/kg and a clearance [2] of 53.7 ± 4.8 mL/min/kg. For the same molecule, the half-life [2] was 5.91 ± 4.71 h, the Efflux ratio (human P‐gp (MDR1‐MDCK)) was 1.68 and the Papp A→B at 2 h, 1 μmol/L (human P-gp (MDR1)) was 1.91 ± 0.93 ×10⁻⁶ cm/s. For the same molecule, the Papp B→A at 2 h, 1 μmol/L (human P-gp (MDR1)) was 3.22 ± 0.389 ×10⁻⁶ cm/s, the efflux ratio at 2 h, 1 μmol/L (human P-gp (MDR1)) was < 2 and the concentration at 6 h [3] was 1420 ± 370 nM. The Papp A→B at 2 h, 1 μmol/L [6] was 0.963 ± 0.26 ×10⁻⁶ cm/s, the Papp B→A at 2 h, 1 μmol/L [6] was 2.37 ± 0.16 ×10⁻⁶ cm/s and the Papp at 2 h, 1 μmol/L [6] was 1.67 ± 0.78 ×10⁻⁶ cm/s.
With NC(=O)N1c2ccccc2C=Cc2ccccc21 [Carbamazepine, carbamazepine] the Efflux transporter substrate [4] was “No”, the “Class” value [4] was “Class I” and the Efflux ratio (Caco‐2 cell line) was 0.662. For the same molecule, the Efflux ratio (Caco‐2 cell line; listed as carbamazepine) was “less than 2.0”, the Papp A→B at 2 h, 5 μmol/L [5] was 33.1 ± 2.3 ×10⁻⁶ cm/s and the Papp B→A at 2 h, 5 μmol/L [5] was 22 ± 1 ×10⁻⁶ cm/s. The Vd [2] was 0.745 ± 0.081 L/kg, the clearance [2] was 18.1 ± 2.9 mL/min/kg and the half-life [2] was 0.993 ± 0.115 h. For the same molecule, the Efflux ratio (human P‐gp (MDR1‐MDCK)) was 0.665, the Efflux ratio (human P‐gp (MDR1‐MDCK); listed as carbamazepine) was “less than 2.0” and the Papp A→B at 2 h, 1 μmol/L (human P-gp (MDR1)) was 34.3 ± 1.2 ×10⁻⁶ cm/s. The Papp B→A at 2 h, 1 μmol/L (human P-gp (MDR1)) was 22.8 ± 0.5 ×10⁻⁶ cm/s, the concentration at 6 h [3] was 1370 ± 170 nM and the “C csf higher than C m,brain by” value [3] was 25%. For the same molecule, the Papp A→B at 2 h, 1 μmol/L [6] was 34.2 ± 2.6 ×10⁻⁶ cm/s and the Papp at 2 h, 1 μmol/L [6] was 27.5 ± 7.5 ×10⁻⁶ cm/s.
In the case of CN(C)CCCC1(c2ccc(F)cc2)OCc2cc(C#N)ccc21 (centres unmarked) [Citalopram, citalopram], the Efflux transporter substrate [4] is reported as “No”, the “Class” value [4] is reported as “Class I” and the Efflux ratio (Caco‐2 cell line) is reported as 1.09. For the same molecule, the Papp A→B at 2 h, 5 μmol/L [5] was 16 ± 1.8 ×10⁻⁶ cm/s, the Papp B→A at 2 h, 5 μmol/L [5] was 17.4 ± 1.4 ×10⁻⁶ cm/s and the efflux ratio at 2 h, 5 μmol/L ([5]; Caco-2, Efflux ratio, Caco‐2 cell line, P app(B–A)/P app(A–B)) was < 2. It also gave a Vd [2] of 6.45 ± 0.64 L/kg, a clearance [2] of 95.9 ± 11.2 mL/min/kg and a half-life [2] of 1.02 ± 0.05 h. For the same molecule, the Efflux ratio (human P‐gp (MDR1‐MDCK)) was 1.72, the Papp A→B at 2 h, 1 μmol/L (human P-gp (MDR1)) was 13.8 ± 3.2 ×10⁻⁶ cm/s and the Papp B→A at 2 h, 1 μmol/L (human P-gp (MDR1)) was 23.7 ± 0.7 ×10⁻⁶ cm/s. The efflux ratio at 2 h, 1 μmol/L (human P-gp (MDR1)) was < 2, the concentration at 6 h [3] was 954 ± 91 nM and the Papp A→B at 2 h, 1 μmol/L [6] was 19 ± 3.1 ×10⁻⁶ cm/s. The Papp B→A at 2 h, 1 μmol/L [6] was 10.9 ± 2.6 ×10⁻⁶ cm/s and the Papp at 2 h, 1 μmol/L [6] was 15 ± 5.1 ×10⁻⁶ cm/s.
For Cc1c(O)cccc1C(=O)N[C@@H](CSc1ccccc1)[C@H](O)CN1C[C@H]2CCCC[C@H]2C[C@H]1C(=O)NC(C)(C)C [neflinivir], the permeability (P‐gp) is given as 197 ×10⁻⁶ cm/s.
In the case of C=C[C@H]1C[N@@]2CC[C@H]1C[C@@H]2[C@@H](O)c1ccnc2ccc(OC)cc12 [Quinidine, quinidine], the concentration at 6 h [3] is given as 552 ± 126 nM and the permeability (MDCK‐MDR1‐NKI cell lines) is given as “about 60 × 10^−6 cm/sec”.
For CC(=O)Nc1ccc(O)cc1 [Acetaminophen], the Papp A→B at 2 h, 5 μmol/L [5] was 19.6 ± 2.1 ×10⁻⁶ cm/s, the Papp B→A at 2 h, 5 μmol/L [5] was 19.6 ± 1.9 ×10⁻⁶ cm/s and the Vd [2] was 2.87 ± 1.44 L/kg. It also gave a half-life [2] of 4.96 ± 2.31 h, a Papp A→B at 2 h, 1 μmol/L (human P-gp (MDR1)) of 18.5 ± 4.6 ×10⁻⁶ cm/s and a Papp B→A at 2 h, 1 μmol/L (human P-gp (MDR1)) of 14.3 ± 0.9 ×10⁻⁶ cm/s. The concentration at 6 h [3] was 3450 ± 820 nM, the Papp A→B at 2 h, 1 μmol/L [6] was 16.7 ± 0.6 ×10⁻⁶ cm/s and the Papp B→A at 2 h, 1 μmol/L [6] was 14.2 ± 0.9 ×10⁻⁶ cm/s. The Papp at 2 h, 1 μmol/L [6] was 15.5 ± 1.5 ×10⁻⁶ cm/s, the “C m,brain” value ([7]; Frontal cortex) was 4.79 ± 0.34 µmol/L and the “C m,brain” value ([7]; Hypothalamus) was 4.62 ± 0.82 µmol/L.
Work on CC1COc2c(N3CCN(C)CC3)c(F)cc3c(=O)c(C(=O)O)cn1c23 (centres unmarked) [Ofloxacin, ofloxacin] yielded a Vd [2] of 5.08 ± 2.99 L/kg, a clearance [2] of 32.5 ± 4.9 mL/min/kg and a half-life [2] of 6.32 ± 3.34 h. For the same molecule, the concentration at 6 h [3] was 678 ± 293 nM.
